Experiment [1] has as its target T1, human MAGL (His-hMAGL) (Homo sapiens, UniProt Q99685).
T1 construct: made in house; host or cells: Escherichia coli BL21(DE3)
T1 sequence (Q99685 1-303): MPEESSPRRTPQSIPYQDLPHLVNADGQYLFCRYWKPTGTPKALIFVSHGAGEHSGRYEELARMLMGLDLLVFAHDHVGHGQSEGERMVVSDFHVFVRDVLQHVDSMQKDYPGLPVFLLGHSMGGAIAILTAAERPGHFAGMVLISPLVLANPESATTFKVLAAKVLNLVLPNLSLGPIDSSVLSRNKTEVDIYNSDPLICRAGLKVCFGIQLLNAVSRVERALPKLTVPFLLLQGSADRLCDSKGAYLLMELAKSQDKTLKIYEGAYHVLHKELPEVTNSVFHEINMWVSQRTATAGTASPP
The experiment can be described thus: Measurement of MAGL inhibitory activity by absorbance. As to conditions: 10 μM test compound; substrate p-nitrophenyl acetate, absorbance at 405 nm. Type of experiment: biochemical. The source says:
(1) Cloning of Human MGLL Encoding MAGL Protein and Construction of Expression Plasmid
Human MGLL cDNA was obtained by PCR using human ORF Clone (DNAForm; Clone ID: 100004585) as a template. For PCR, two kinds of primers: […]
The obtained PCR product was digested with Bam HI and Not I (Takara Bio Inc.), inserted into the Bam HI/Not I site of pET21HH(V) (pET21a (Novagen) inserted with His x6 and TEV Protease recognition sequence) by using Ligation High (Toyobo Co., Ltd.), and introduced into ECOS™ JM109 (Nippon Gene Co., Ltd.), whereby expression plasmid pET21HH(V)/His-hMGLLv2 for Escherichia coli was constructed. (2) Preparation of Recombinant Polyhistidine Tagged Human MAGL Protein
Recombinant His-hMAGL protein was prepared by transforming ECOS™ Competent E. coli BL21(DE3) (Nippon Gene Co., Ltd.) with the pET21HH(V)/His-hMGLLv2 plasmid prepared above. Escherichia coli obtained by transformation was inoculated to 10 mL of LB medium (1% peptone, 0.5% yeast extract, 0.5% sodium chloride, 0.01% ampicillin), and cultured at 30° C. for 16 hr. […] When the turbidity of the culture medium reached about 500 Klett unit, the culture temperature was lowered to 16° C., isopropyl-β-D-thiogalactopyranoside (IPTG) was added to a final concentration of 1 mM, and the mixture was further cultured for 19 hr. After the completion of culture, the culture medium was centrifuged (4° C., 6,000 rpm, 10 min) to give His-hMAGL expression Escherichia coli. Then, His-hMAGL expression Escherichia coli was suspended in 50 mM Tris-HCl (pH 8.0, 100 ml) containing 1% Triton X-100, 20 mM imidazole, 3 mM DTT, 5 U/mL Benzonase (Merck) and 150 mM NaCl, sufficiently cooled, and subjected to sonication at […]=60%, 15 sec/ON, 30 sec/OFF for 3 min using ¾″ solid type crushed horn of BRANSON Digital Sonifier 450 (Central Scientific Commerce, Inc.). Furthermore, the homogenate was centrifuged (4° C., 15,000 rpm, 15 min) and the supernatant was obtained. As the purification apparatus, AKTA explorer 10s (GE Healthcare Japan Corporation) was used at 4° C. To the obtained supernatant was added 5M NaCl to the final salt concentration of 0.3 M, and the mixture was flown through and adsorbed to 5 mL of Ni-NTA Superflow Cartridges (QIAGEN) equilibrated in advance with buffer A (50 mM Tris-HCl (pH 8.0) containing 0.05% TritonX-100, 1 mM DTT, 300 mM NaCl). The column was sufficiently washed with buffer A containing 20 mM imidazole and His-hMAGL was eluted with buffer A containing imidazole at a final concentration of 250 mM. The eluate was further subjected to gel filtration using HiLoad 26/600 Superdex 200 pg (GE Healthcare Japan Corporation) equilibrated with 50 mM Tris-HCl pH 8.0 containing 10% glycerol, 0.05% TritonX-100, 1 mM DTT, 150 mM NaCl. The eluted fraction was concentrated by Amicon Ultra-15 10K (Merck Millipore) to give purified His-hMAGL protein. The protein concentration was measured by BCA Protein Assay Kit (Thermo Fisher Scientific) using BSA as the standard.
(3) Measurement of MAGL Inhibitory Activity
His-hMAGL obtained above was diluted with enzyme reaction buffer (10 mM Tris-HCl, pH 7.5, 1 mM EDTA, 0.1 (w/v) % Triton X-100) to a concentration of 60 ng/mL. […] Thereafter, to each well was added 750 μM p-nitrophenyl acetate (Wako Pure Chemical Industries, Ltd.) by 5 μL, and the absorbance at 405 nm was measured every 2 minutes up to 10 minutes by EnVision (PerkinElmer). The amount of change was obtained by subtracting the absorbance measured immediately after the start of the reaction from the absorbance measured 10 min after the start of the reaction.
MAGL inhibitory rate (%) was calculated according to the following calculation formula. (1−(absorbance change amount of test compound addition group−absorbance change amount of enzyme addition-free group)[…](absorbance change amount of test compound addition-free group−absorbance change amount of enzyme addition-free group))×100

The target of experiment [2] is T1, human MAGL (His-hMAGL). Kind of experiment: Measurement of MAGL inhibitory activity by mass spectrometry. Type of experiment: biochemical. Conditions: 10 μM test compound; substrate 2-arachidonylglycerol, arachidonic acid by RapidFire-mass spectrometry. The method, boiled down: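 His-tagged human MAGL was reacted with 150 μM 2-arachidonylglycerol substrate (stock, added by 5 μL) for 10 min at room temperature, then stopped with formic acid. Arachidonic acid product was quantified by RapidFire–triple-quadrupole MS in negative SRM mode, corrected by arachidonic acid-d8, and converted to percent inhibition.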

Experiment [3] deals with Gfap, IL-1β, IL-6 gene expression in hippocampus. Kind of experiment: Measurement of gene expression in hippocampus of kainic acid intraventricular administration rat. Type of experiment: in vivo. As to conditions: SD rats, 30 mg/kg by gavage, hippocampus 24 hr after administration.

In general, inhibition refers to the percentage by which the read-out fell short of the control.

Molecules are shown by their SMILES.

For `O=C(c1nccs1)N1CCN([C@@H]2CC(=O)N(c3ccc4c(ccn4-c4ncc(C(F)(F)F)cn4)c3)C2)CC1` [Example 80, (4R)-4-(4-(1,3-Thiazol-2-ylcarbonyl)piperazin-1-yl)-1-(1-(5-(trifluoromethyl)pyrimidin-2-yl)-1H-indol-5-yl)pyrrolidin-2-one], the inhibition at 10 µM in experiment [1] stood at 100%; in experiment [2] it was 97%.
In experiment [1], `O=C(c1nccs1)N1CCN(C2CC(=O)N(c3ccc4c(ccn4-c4ccc(F)cn4)c3)C2)CC1` (centres unmarked) [Example 82, 1-(1-(5-fluoropyridin-2-yl)-1H-indol-5-yl)-4-(4-(1,3-thiazol-2-ylcarbonyl)piperazin-1-yl)pyrrolidin-2-one] came in with an inhibition at 10 µM of 95%.
Still for that read-out and setting: to `O=C(c1nccs1)N1CCN(C2CC(=O)N(c3ccc4c(ccn4-c4ncc(F)cn4)c3)C2)CC1` (centres unmarked) [Example 83, 1-(1-(5-fluoropyrirnidin-2-yl)-1H-indol-5-yl)-4-(4-(1,3-thiazol-2-ylcarbonyl)piperazin-1-yl)pyrrolidin-2-one] belongs 96%.
Regarding `O=C(c1nccs1)N1CCN(C2CC(=O)N(c3ccc4c(ccn4-c4ncc(Cl)cn4)c3)C2)CC1` (centres unmarked) [Example 84, 1-(1-(5-chloropyrirnidin-2-yl)-1H-indol-5-yl)-4-(4-(1,3-thiazol-2-ylcarbonyl)piperazin-1-yl)pyrrolidin-2-one], testing at 10 µM in experiment [1] gave an inhibition of 96%.
Same read-out and setting: to `O=C(c1nccs1)N1CCN(C2CC(=O)N(c3ccc4c(cnn4-c4ccc(F)cc4)c3)C2)CC1` (centres unmarked) [Example 85, 1-(1-(4-Fluorophenyl)-1H-indazol-5-yl)-4-(4-(1,3-thiazol-2-ylcarbonyl)piperazin-1-yl)pyrrolidin-2-one] belongs 99%; to `O=C(c1nccs1)N1CCN(C2CC(=O)N(c3ccc4c(cnn4-c4ccc(Cl)cn4)c3)C2)CC1` (centres unmarked) [Example 86, 1-(1-(5-chloropyridin-2-yl)-1H-indazol-5-yl)-4-(4-(1,3-thiazol-2-ylcarbonyl)piperazin-1-yl)pyrrolidin-2-one], 99%; to `O=C(c1nccs1)N1CCN(C2CC(=O)N(c3ccc4c(ccn4-c4ccc(Cl)cn4)c3)C2)CC1` (centres unmarked) [Example 87, 1-(1-(5-chloropyridin-2-yl)-1H-indol-5-yl)-4-(4-(1,3-thiazol-2-ylcarbonyl)piperazin-1-yl)pyrrolidin-2-one], 98%.
Regarding `O=C(c1nccs1)N1CCN([C@@H]2CC(=O)N(c3ccc4c(ccn4-c4ncc(C(F)(F)F)cn4)c3)C2)CC1` [compound 1, (4R)-4-(4-(1,3-thiazol-2-ylcarbonyl)piperazin-1-yl)-1-(1-(5-(trifluoromethyl)pyrimidin-2-yl)-1H-indol-5-yl)pyrrolidin-2-one], in experiment [3], the “effect to decrease expression of a gene of glial fibrillary acidic protein (GFAP) (FIG. 3)” value is listed as “decrease expression”, the “effect to decrease expression of a gene of interleukin 1β (IL-1β) (FIG. 4)” value is reported as “decrease expression” and the “effect to decrease expression of a gene of interleukin 6 (IL-6) (FIG. 5)” value is given as “decrease expression”.
